Reference: patent US5650442A (priority 1994, dated 1997)

Assays:
[1] = system: Chinese hamster V79 lung fibroblasts; assay: Radiation survival of hypoxic V79 cells (metabolism-mediated oxygen depletion), clonogenic assay, SER; type: cell-based; settings: hypoxic; for SER: 1% surviving fraction level
Procedure: Chinese hamster V79 lung fibroblasts were cultured in F12 medium supplemented with 10% fetal calf serum and antibiotics. […] The assay system was specifically designed to evaluate radiation sensitivity of cells exposed to radiation under both aerobic and hypoxic conditions (Mitchell et al., Radiat. Res., 96, 422-428 (1983); Russo et al., Radiat. Res., 103, 232-239 (1985); and DeGraff et al., Int. J. Radiat. Oncol. Biol. Phys., 16, 1021-1024 (1989)).
When cultured cells were exposed to DEA/NO in subsequent examples, DEA/NO in F12 medium with 10 mM HEPES buffer, pH 7.0, was used. […] Control cells in subsequent examples were exposed to 0.02N NaOH, instead of DEA/NO.
The induction of hypoxia in dense cell suspensions by metabolism-mediated oxygen depletion was carried out as described by Mitchell et al. (supra) and Phillips et al. (Int. J. Radiat. Oncol. Biol. Phys., 12, 1627-1635 (1986)). Briefly, stock cultures of exponentially growing Chinese hamster V79 lung fibroblasts in 850 cm^2 roller bottles were trypsinized, rinsed with medium, and counted. Samples of 10^8 cells were then placed in 15 ml centrifuge tubes, centrifuged at 1,000 rpm for 5 min at 25° C., and rinsed once with medium or medium containing DEA/NO (final concentrations ranging from 0.1-2.0 mM), nitrite, diethylamine, or DEA/NO that had been allowed to decompose in full medium overnight at 37° C.
The cell suspension was taken up into a 3 ml glass syringe with a 18 gauge spinal needle. Air bubbles were removed, and a 25 gauge needle was fitted onto the syringe. The syringe was rotated by hand at room temperature for 20 min to allow for cellular metabolic oxygen consumption. The syringe was then placed in a lucite block and irradiated. After a given dose of radiation, 1-3 drops of cell suspension were discarded, and 1-2 drops were collected in tubes containing drug-free medium. In this manner an entire hypoxic survival curve for a given treatment condition can be obtained from a single syringe.
Hypoxic Chinese hamster V79 lung fibroblasts of Example 2 were irradiated at room temperature with 4 MeV photons from a linear accelerator at a dose rate of 1.5 Gy/min. Full electron equilibrium was ensured for all irradiations.
Following irradiation, the various cell suspensions were pipetted, counted, diluted, and plated for macroscopic colony formation. Each dose determination was plated in triplicate and experiments were repeated a minimum of two times. Plates were incubated for seven days, after which colonies were fixed with methanol/acetic acid (3:1), stained with crystal violet, and counted. Colonies containing >50 cells were scored and graphed as FIGS. 1-3. Error bars in the graphs represent the standard deviation of the mean and are shown when larger than the symbol used to designate a data point. Survival curve data were fitted using a linear quadratic model of Albright (Radiat. Res., 112, 331-340 (1987)), and the survival curves shown in the figures represent the best fit curves for the experimental data points. Sensitizer enhancement ratios (SER) were calculated by dividing the radiation dose for control hypoxic conditions by the radiation dose for various agents under hypoxic conditions at the 1% surviving fraction level.
Radiation survival curves for V79 cells exposed to varying concentrations of DEA/NO and various DEA/NO decomposition products under hypoxic conditions (metabolic hypoxia induction) are shown in FIG. 1A, which is a graph of the surviving fraction versus dose (Gy).

KHT tumors = assay: In vivo radiosensitization of KHT tumors (regrowth delay); parameters: species or system C3H mice
Procedure: This murine model is one which is routinely used to test hypoxic radiosensitizers. In fact, results obtained with this model were used as a basis for initiating clinical trials of nitroimidazoles as radiation sensitizers in the early to mid-1970's.
C3H mice with hind leg implants of KHT tumors were exposed to radiation. When the tumors had grown to 8 mm in circumference, the mice were treated with DEA/NO alone (control), 15 cGy directed at the tumor, or DEA/NO given 30 minutes before tumor irradiation with 15 cGy (DEA/NO (30 min)). The mice experienced a tumor regrowth delay of one day after treatment of the tumor with 15 cGy.

C3H mice = assay: Protection of mice from whole body irradiation; type: in vivo

For CCN(CC)/[N+]([O-])=N/[O-].[Na+] [DEA/NO], which extent of radiosensitization ([1]; 0.1 mM) is on record?
The extent of radiosensitization was “modest”.

And the SER ([1]; 0.10 mM, ± SD)?
Its SER is 1.1 ± 0.06.

And the SER ([1]; 0.50 mM, ± SD)?
Its SER is 2.1 ± 0.40.

And the SER ([1]; 1.00 mM)?
Its SER is 2.4.

What about the “effectiveness in eliminating radiation resistance due to hypoxia” value ([1]; 2.0 mM) of the same molecule?
The value was “just as effective as oxygen in eliminating radiation resistance due to hypoxia”.

And the SER ([1]; 2.00 mM, ± SD)?
The SER was 2.9±0.4.

What about the extent of radiosensitization ([1]; 0.5 and 1.0 mM) of the same molecule?
The extent of radiosensitization was “significant enhancement was observed”.

And the tumor regrowth delay (KHT tumors; 80 mg/kg 30 min before 15 cGy tumor irradiation)?
Its tumor regrowth delay is 8 days.

What about the “survival with no evidence of tumor” value (KHT tumors; DEA/NO (30 min) group, 15 cGy) of the same molecule?
The value was “Two animals in the DEA/NO (30 min) group survived for at least four weeks with no evidence of tumor”.

And the tumors eradicated (KHT tumors; DEA/NO before 15 cGy, n=14)?
The tumors eradicated was 14%.

What about the “Percent survival of mice at 30 days” value (C3H mice; 700 cGy, 80 mg/kg i.p. 10 min before) of the same molecule?
Its value is 100%.

And the “Percent survival of mice at 30 days” value (C3H mice; 700 cGy, 80 mg/kg i.p. 30 min before)?
The value was 100%.

What about the “Percent survival of mice at 30 days” value (C3H mice; 800 cGy, 80 mg/kg i.p. 10 min before) of the same molecule?
The value was 100%.

And the “Percent survival of mice at 30 days” value (C3H mice; 800 cGy, 80 mg/kg i.p. 30 min before)?
Its value is 90%.

And the “Percent survival of mice at 30 days” value (C3H mice; 900 cGy, 80 mg/kg i.p. 10 min before)?
Its value is 77%.

And the “Percent survival of mice at 30 days” value (C3H mice; 900 cGy, 80 mg/kg i.p. 30 min before)?
Its value is 80%.

What about the “Percent survival of mice at 30 days” value (C3H mice; 1000 cGy, 80 mg/kg i.p. 10 min before) of the same molecule?
The value was 44%.

And the “Percent survival of mice at 30 days” value (C3H mice; 1000 cGy, 80 mg/kg i.p. 30 min before)?
Its value is 10%.
